# Measured values: patent publication US20240368135A1 (VERTEX PHARMACEUTICALS INCORPORATED, priority 2021, published 2024)
# Target: human NaV 1.8 (Homo sapiens, UniProt Q9Y5Y9)
# Assay: E-VIPR assay detecting and measuring NaV inhibition properties
# Assay type: cell-based
# Conditions: HEK cells expressing truncated human NaV 1.8; no human serum; read-out: IC50 in the E-VIPR Assay
# Procedure, shortened: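 HEK cells expressing truncated, fully active human NaV1.8, with KIR2.1 BacMam co-transduction, were loaded with CC2-DMPE/DiSBAC6(3) voltage-sensing dyes for 20 min at room temperature. Compounds were tested in 11-point 3-fold dilutions (300 nM top final), optionally with 25% human serum, under electrical stimulation with FRET read-out.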
# human NaV 1.8, sequence (Q9Y5Y9 126-399 limits assumed): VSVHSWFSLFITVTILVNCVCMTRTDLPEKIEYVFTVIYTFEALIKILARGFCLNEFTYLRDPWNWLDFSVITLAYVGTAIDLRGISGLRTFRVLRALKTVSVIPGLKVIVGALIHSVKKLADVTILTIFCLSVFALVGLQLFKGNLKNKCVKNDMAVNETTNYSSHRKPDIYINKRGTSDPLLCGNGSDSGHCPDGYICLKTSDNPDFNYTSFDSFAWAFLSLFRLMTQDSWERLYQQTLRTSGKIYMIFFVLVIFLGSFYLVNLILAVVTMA
# human NaV 1.8, sequence (Q9Y5Y9 660-890 limits assumed): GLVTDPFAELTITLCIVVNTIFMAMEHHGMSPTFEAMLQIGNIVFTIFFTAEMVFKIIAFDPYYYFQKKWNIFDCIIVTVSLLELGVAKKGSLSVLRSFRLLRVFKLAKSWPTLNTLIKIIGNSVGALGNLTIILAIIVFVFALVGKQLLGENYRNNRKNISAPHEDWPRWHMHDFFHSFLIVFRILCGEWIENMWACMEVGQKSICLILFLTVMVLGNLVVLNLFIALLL
# human NaV 1.8, sequence (Q9Y5Y9 1148-1722 limits assumed): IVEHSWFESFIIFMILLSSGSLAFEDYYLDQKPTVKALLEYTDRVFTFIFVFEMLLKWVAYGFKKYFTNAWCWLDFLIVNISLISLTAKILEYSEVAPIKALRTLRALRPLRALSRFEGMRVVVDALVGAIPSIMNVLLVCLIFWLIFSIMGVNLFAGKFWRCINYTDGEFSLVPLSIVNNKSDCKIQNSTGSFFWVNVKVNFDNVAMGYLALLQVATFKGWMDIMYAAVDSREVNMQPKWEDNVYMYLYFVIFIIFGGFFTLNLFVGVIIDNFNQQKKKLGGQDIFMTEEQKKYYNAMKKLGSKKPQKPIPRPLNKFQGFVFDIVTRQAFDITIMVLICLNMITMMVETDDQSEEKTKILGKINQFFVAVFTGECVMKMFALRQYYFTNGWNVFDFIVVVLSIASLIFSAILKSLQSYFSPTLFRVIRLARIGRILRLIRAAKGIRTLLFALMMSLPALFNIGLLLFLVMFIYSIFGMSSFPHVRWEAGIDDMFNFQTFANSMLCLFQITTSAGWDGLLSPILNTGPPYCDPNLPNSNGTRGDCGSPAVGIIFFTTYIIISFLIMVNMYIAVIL
row,Structure (SMILES),IC50
1,"Cc1oncc1NC(=O)C1OC(C)(C(F)(F)F)C(C)C1c1ccc(F)c(F)c1OC1CC(O)C1 [Compound 656, (2R,3S,4S,5R)-3-(3,4-difluoro-2-((1S,3R)-3-hydroxycyclobutoxy)phenyl)-4,5-dimethyl-N-(5-methylisoxazol-4-yl)-5-(trifluoromethyl)tetrahydrofuran-2-carboxamide]",10 to 100 nM
2,"CC1C(c2ccc(F)c(F)c2OC2CC(O)C2)C(C(=O)Nc2cc(CO)ncc2F)OC1(C)C(F)(F)F [Compound 657, (2R,3S,4S,5R)-3-(3,4-difluoro-2-((1S,3R)-3-hydroxycyclobutoxy)phenyl)-N-(5-fluoro-2-(hydroxymethyl)pyridin-4-yl)-4,5-dimethyl-5-(trifluoromethyl)tetrahydrofuran-2-carboxamide]",≥ 1000 nM
3,"C[C@H]1[C@@H](c2ccc(F)c(F)c2O[C@H]2C[C@@H](O)C2)[C@H](C(=O)Nc2ccnnc2)O[C@@]1(C)C(F)(F)F [Compound 658, (2R,3S,4S,5R)-3-(3,4-difluoro-2-((1s,3R)-3-hydroxycyclobutoxy)phenyl)-4,5-dimethyl-N-(pyridazin-4-yl)-5-(trifluoromethyl)tetrahydrofuran-2-carboxamide]",10 to 100 nM
4,"C[C@H]1[C@@H](c2ccc(F)c(F)c2O[C@H]2C[C@@H](O)C2)[C@H](C(=O)Nc2cncc(C#N)c2)O[C@@]1(C)C(F)(F)F [Compound 659, (2R,3S,4S,5R)-N-(5-cyanopyridin-3-yl)-3-(3,4-difluoro-2-((1S,3R)-3-hydroxycyclobutoxy)phenyl)-4,5-dimethyl-5-(trifluoromethyl)tetrahydrofuran-2-carboxamide]",10 to 100 nM
5,"C[C@H]1[C@@H](c2ccc(F)c(F)c2O[C@H]2C[C@@H](O)C2)[C@H](C(=O)Nc2cncc(F)c2)O[C@@]1(C)C(F)(F)F [Compound 660, (2R,3S,4S,5R)-3-(3,4-difluoro-2-((1S,3R)-3-hydroxycyclobutoxy)phenyl)-N-(5-fluoropyridin-3-yl)-4,5-dimethyl-5-(trifluoromethyl)tetrahydrofuran-2-carboxamide]",10 to 100 nM
6,"Cc1ccc(NC(=O)C2OC(C)(C(F)(F)F)C(C)C2c2ccc(F)c(F)c2OC2CC(O)C2)cn1 [Compound 661, (2R,3S,4S,5R)-3-(3,4-difluoro-2-((1S,3R)-3-hydroxycyclobutoxy)phenyl)-4,5-dimethyl-N-(6-methylpyridin-3-yl)-5-(trifluoromethyl)tetrahydrofuran-2-carboxamide]",10 to 100 nM
7,"C[C@H]1[C@@H](c2ccc(F)c(F)c2O[C@H]2C[C@@H](O)C2)[C@H](C(=O)Nc2ccn(C)c(=O)c2)O[C@@]1(C)C(F)(F)F [Compound 663, (2R,3S,4S,5R)-3-(3,4-difluoro-2-((1S,3R)-3-hydroxycyclobutoxy)phenyl)-4,5-dimethyl-N-(1-methyl-2-oxo-1,2-dihydropyridin-4-yl)-5-(trifluoromethyl)tetrahydrofuran-2-carboxamide]",10 to 100 nM
8,"COCc1cc(NC(=O)C2OC(C)(C(F)(F)F)C(C)C2c2ccc(F)c(F)c2OC2CC(O)C2)ccn1 [Compound 664, (2R,3S,4S,5R)-3-(3,4-difluoro-2-((1S,3R)-3-hydroxycyclobutoxy)phenyl)-N-(2-(methoxymethyl)pyridin-4-yl)-4,5-dimethyl-5-(trifluoromethyl)tetrahydrofuran-2-carboxamide]",10 to 100 nM
9,"Cc1cncc(NC(=O)C2OC(C)(C(F)(F)F)C(C)C2c2ccc(F)c(F)c2OC2CC(O)C2)c1 [Compound 665, (2R,3S,4S,5R)-3-(3,4-difluoro-2-((1S,3R)-3-hydroxycyclobutoxy)phenyl)-4,5-dimethyl-N-(5-methylpyridin-3-yl)-5-(trifluoromethyl)tetrahydrofuran-2-carboxamide]",10 to 100 nM
10,"Cc1nn(C(F)F)cc1NC(=O)[C@@H]1O[C@@](C)(C(F)(F)F)[C@@H](C)[C@H]1c1ccc(F)c(F)c1CO [Compound 668, (2R,3S,4S,5R)-3-(3,4-difluoro-2-(hydroxymethyl)phenyl)-N-(1-(difluoromethyl)-3-methyl-1H-pyrazol-4-yl)-4,5-dimethyl-5-(trifluoromethyl)tetrahydrofuran-2-carboxamide]",10 to 100 nM
11,"Cc1nn(C(F)F)cc1NC(=O)[C@@H]1O[C@@](C)(C(F)(F)F)[C@@H](C)[C@H]1c1ccc(F)c(F)c1CN(C)C1CCOCC1 [Compound 669, (2R,3S,4S,5R)-3-(3,4-difluoro-2-((methyl(tetrahydro-2H-pyran-4-yl)amino)methyl)phenyl)-N-(1-(difluoromethyl)-3-methyl-1H-pyrazol-4-yl)-4,5-dimethyl-5-(trifluoromethyl)tetrahydrofuran-2-carboxamide]",10 to 100 nM
12,"Cc1nn(C(F)F)cc1NC(=O)[C@@H]1O[C@@](C)(C(F)(F)F)[C@@H](C)[C@H]1c1ccc(F)c(F)c1CN1CC2(COC2)C1 [Compound 670, (2R,3S,4S,5R)-3-(2-((2-oxa-6-azaspiro[3.3]heptan-6-yl)methyl)-3,4-difluorophenyl)-N-(1-(difluoromethyl)-3-methyl-1H-pyrazol-4-yl)-4,5-dimethyl-5-(trifluoromethyl)tetrahydrofuran-2-carboxamide]",10 to 100 nM
13,"CNCc1c([C@H]2[C@H](C(=O)Nc3cn(C(F)F)nc3C)O[C@@](C)(C(F)(F)F)[C@H]2C)ccc(F)c1F [Compound 671, (2R,3S,4S,5R)-3-(3,4-difluoro-2-((methylamino)methyl)phenyl)-N-(1-(difluoromethyl)-3-methyl-1H-pyrazol-4-yl)-4,5-dimethyl-5-(trifluoromethyl)tetrahydrofuran-2-carboxamide]",100 to 1000 nM
14,"Cc1nn(C(F)F)cc1NC(=O)[C@@H]1O[C@@](C)(C(F)(F)F)[C@@H](C)[C@H]1c1ccc(F)c(F)c1CN(C)C [Compound 672, (2R,3S,4S,5R)-N-(1-(difluoromethyl)-3-methyl-1H-pyrazol-4-yl)-3-(2-((dimethylamino)methyl)-3,4-difluorophenyl)-4,5-dimethyl-5-(trifluoromethyl)tetrahydrofuran-2-carboxamide]",10 to 100 nM
15,"Cc1nn(C(F)F)cc1NC(=O)[C@@H]1O[C@@](C)(C(F)(F)F)[C@@H](C)[C@H]1c1ccc(F)c(F)c1CN1CCN(C)CC1 [Compound 674, (2R,3S,4S,5R)-3-(3,4-difluoro-2-((4-methylpiperazin-1-yl)methyl)phenyl)-N-(1-(difluoromethyl)-3-methyl-1H-pyrazol-4-yl)-4,5-dimethyl-5-(trifluoromethyl)tetrahydrofuran-2-carboxamide]",100 to 1000 nM
16,"C=Cc1c([C@H]2[C@H](C(=O)Nc3cn(C(F)F)nc3C)O[C@@](C)(C(F)(F)F)[C@H]2C)ccc(F)c1F [Compound 676, (2R,3S,4S,5R)-3-(3,4-difluoro-2-vinylphenyl)-N-(1-(difluoromethyl)-3-methyl-1H-pyrazol-4-yl)-4,5-dimethyl-5-(trifluoromethyl)tetrahydrofuran-2-carboxamide]",< 10 nM
17,"Cc1nn(C(F)F)cc1NC(=O)[C@@H]1O[C@@](C)(C(F)(F)F)[C@@H](C)[C@H]1c1ccc(F)c(F)c1CCO [Compound 677, (2R,3S,4S,5R)-3-(3,4-difluoro-2-(2-hydroxyethyl)phenyl)-N-(1-(difluoromethyl)-3-methyl-1H-pyrazol-4-yl)-4,5-dimethyl-5-(trifluoromethyl)tetrahydrofuran-2-carboxamide]",10 to 100 nM
